pIC50: −log10 of the molar value.
Legend:
Assay in all cases: Enzyme Assay
PIK3CG (human) = PIK3CG (human) (UniProt P48736)
PIK3CA (human) = PIK3CA (human) (UniProt P42336)
PIK3CB (Human) = PIK3CB (Human) (UniProt P42338)
PIK3CD (Human) = PIK3CD (Human) (UniProt O00329)
Sequence of PIK3CD (Human) (O00329 whole entry, looked up): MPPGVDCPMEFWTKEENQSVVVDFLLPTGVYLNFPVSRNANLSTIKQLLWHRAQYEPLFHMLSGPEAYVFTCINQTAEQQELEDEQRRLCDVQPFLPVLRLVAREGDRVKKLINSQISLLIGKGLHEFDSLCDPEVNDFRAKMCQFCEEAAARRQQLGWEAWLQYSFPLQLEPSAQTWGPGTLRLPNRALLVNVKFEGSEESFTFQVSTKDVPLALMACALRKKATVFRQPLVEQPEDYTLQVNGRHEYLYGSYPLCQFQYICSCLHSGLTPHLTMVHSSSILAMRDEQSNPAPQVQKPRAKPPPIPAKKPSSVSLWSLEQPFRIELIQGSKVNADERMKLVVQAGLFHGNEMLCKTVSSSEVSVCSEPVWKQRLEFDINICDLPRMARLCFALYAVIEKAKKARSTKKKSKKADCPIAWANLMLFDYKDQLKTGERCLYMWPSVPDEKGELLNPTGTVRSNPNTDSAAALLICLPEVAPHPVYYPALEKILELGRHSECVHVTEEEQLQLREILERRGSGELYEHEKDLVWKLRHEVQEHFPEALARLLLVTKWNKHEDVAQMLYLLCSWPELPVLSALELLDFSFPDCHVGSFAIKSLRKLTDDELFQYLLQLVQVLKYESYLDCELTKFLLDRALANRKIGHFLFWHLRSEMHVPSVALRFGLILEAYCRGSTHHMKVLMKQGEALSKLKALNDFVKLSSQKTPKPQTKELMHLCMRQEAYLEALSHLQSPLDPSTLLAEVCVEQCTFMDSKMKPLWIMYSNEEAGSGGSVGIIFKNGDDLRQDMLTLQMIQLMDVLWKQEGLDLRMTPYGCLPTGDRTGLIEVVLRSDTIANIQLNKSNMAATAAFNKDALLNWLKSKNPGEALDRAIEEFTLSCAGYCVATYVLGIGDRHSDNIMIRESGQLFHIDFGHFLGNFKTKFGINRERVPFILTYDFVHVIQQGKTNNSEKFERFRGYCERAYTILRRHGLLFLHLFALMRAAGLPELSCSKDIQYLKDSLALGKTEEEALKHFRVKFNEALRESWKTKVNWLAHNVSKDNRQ

Sequence of PIK3CB (Human) (P42338 whole entry, looked up): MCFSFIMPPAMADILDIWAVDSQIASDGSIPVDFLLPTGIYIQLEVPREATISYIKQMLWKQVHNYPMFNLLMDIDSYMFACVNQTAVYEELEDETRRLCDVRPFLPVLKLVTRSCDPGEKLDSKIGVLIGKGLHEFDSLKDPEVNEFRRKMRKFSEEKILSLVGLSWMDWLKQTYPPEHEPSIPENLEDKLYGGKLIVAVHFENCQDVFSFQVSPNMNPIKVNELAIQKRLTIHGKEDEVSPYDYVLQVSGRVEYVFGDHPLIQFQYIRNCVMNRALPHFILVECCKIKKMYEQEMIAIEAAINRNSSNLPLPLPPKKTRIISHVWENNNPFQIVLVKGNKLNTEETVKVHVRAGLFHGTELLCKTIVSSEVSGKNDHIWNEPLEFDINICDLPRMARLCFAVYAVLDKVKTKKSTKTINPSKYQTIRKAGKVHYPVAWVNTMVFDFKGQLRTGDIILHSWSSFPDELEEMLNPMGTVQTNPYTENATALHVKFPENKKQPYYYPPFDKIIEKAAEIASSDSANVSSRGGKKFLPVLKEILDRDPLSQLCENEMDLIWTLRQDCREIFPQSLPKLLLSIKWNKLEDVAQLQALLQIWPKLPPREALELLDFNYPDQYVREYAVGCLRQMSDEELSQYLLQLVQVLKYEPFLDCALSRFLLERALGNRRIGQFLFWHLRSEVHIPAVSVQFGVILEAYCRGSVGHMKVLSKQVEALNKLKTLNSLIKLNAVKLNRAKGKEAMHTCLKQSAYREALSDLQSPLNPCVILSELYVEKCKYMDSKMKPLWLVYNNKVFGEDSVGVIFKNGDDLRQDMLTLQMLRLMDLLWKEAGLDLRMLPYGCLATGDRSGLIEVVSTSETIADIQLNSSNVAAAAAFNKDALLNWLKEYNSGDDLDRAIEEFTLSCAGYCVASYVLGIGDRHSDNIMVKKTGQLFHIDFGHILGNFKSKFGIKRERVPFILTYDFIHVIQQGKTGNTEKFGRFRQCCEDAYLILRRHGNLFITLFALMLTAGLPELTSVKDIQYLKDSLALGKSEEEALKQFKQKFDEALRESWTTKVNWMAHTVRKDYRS
Sequence of PIK3CG (human) (P48736 whole entry, looked up): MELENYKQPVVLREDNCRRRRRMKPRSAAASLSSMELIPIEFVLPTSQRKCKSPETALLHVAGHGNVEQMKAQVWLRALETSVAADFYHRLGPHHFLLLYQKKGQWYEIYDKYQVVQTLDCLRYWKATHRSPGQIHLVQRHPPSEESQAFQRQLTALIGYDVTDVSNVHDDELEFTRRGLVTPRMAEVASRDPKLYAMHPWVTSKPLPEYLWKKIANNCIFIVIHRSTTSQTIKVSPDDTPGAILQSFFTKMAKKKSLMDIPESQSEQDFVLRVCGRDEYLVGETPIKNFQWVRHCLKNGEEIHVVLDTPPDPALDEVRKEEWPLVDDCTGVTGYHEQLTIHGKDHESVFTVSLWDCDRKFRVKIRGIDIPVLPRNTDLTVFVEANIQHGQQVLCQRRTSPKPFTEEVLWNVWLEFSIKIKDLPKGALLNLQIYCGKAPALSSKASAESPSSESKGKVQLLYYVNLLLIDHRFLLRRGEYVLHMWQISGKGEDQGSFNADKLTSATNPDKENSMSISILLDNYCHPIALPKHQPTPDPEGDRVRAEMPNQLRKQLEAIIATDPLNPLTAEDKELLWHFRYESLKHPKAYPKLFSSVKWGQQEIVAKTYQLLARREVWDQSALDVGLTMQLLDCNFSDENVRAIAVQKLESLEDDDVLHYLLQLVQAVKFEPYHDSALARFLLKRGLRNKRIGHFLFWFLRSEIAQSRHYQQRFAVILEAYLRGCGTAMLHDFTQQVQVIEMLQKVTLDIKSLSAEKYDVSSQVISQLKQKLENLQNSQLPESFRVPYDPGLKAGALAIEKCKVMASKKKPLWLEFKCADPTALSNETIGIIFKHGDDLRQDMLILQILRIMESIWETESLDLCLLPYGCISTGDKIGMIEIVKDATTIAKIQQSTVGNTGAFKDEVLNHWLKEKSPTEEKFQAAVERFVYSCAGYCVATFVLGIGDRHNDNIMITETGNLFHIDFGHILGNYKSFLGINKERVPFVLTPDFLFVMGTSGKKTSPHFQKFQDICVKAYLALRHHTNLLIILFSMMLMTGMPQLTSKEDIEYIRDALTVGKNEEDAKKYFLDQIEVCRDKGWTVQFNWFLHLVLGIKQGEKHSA
Sequence of PIK3CA (human) (P42336 whole entry, looked up): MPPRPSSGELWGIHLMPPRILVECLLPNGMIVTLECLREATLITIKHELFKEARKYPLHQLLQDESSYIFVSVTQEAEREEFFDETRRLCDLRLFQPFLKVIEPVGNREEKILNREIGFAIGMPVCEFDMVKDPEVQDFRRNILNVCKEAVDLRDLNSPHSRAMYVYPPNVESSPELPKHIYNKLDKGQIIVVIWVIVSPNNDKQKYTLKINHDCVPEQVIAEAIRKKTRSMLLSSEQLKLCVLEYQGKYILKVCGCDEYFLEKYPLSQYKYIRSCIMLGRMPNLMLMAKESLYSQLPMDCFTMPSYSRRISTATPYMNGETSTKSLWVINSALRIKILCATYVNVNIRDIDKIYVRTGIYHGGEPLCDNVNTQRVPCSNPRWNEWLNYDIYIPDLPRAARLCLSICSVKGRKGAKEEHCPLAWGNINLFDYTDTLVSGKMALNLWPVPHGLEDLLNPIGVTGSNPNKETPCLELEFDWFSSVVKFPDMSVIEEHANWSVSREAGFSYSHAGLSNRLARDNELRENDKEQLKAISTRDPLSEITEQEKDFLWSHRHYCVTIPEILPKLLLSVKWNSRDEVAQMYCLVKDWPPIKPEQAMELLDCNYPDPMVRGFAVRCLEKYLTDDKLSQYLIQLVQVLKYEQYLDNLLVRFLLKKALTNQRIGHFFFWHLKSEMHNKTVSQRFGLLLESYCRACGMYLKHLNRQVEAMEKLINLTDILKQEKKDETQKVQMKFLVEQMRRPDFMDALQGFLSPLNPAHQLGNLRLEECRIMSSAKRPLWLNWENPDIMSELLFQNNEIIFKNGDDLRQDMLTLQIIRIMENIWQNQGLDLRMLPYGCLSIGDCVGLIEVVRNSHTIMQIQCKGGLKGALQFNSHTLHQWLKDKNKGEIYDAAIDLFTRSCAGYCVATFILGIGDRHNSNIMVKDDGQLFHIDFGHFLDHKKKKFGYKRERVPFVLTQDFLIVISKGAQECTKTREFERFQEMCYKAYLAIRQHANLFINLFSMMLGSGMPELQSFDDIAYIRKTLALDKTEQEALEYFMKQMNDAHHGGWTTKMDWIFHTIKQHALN

| Compound | pIC50 (PIK3CG (human)) | pIC50 (PIK3CA (human)) | pIC50 (PIK3CB (Human)) | pIC50 (PIK3CD (Human)) |
| --- | --- | --- | --- | --- |
| Cc1cccc2cc(Cn3nc(I)c4c(N)ncnc43)n(-c3ccccc3F)c(=O)c12 | 6.00 to 7.00 | – | – | – |
| Nc1ncnc2c1c(-c1cn[nH]c1)nn2Cc1cc2cccc(F)c2c(=O)n1-c1ccccc1F | – | < 5.00 | < 5.00 | 6.00 to 7.00 |
| Cc1ccccc1-n1c(Cn2nc(I)c3c(N)ncnc32)cc2cccc(F)c2c1=O | – | < 5.00 | < 5.00 | 6.00 to 7.00 |
| Cc1cccc2cc([C@H](C)Nc3ncnc4[nH]cc(C(N)=O)c34)n(C3CC3)c(=O)c12 | – | 6.00 to 7.00 | > 7.00 | > 7.00 |
| Cc1cccc2cc([C@H](C)Nc3nc(Cl)ncc3Cl)n(-c3ccccc3)c(=O)c12 | – | < 5.00 | < 5.00 | 6.00 to 7.00 |
| Cc1ccccc1-n1c(Cn2nc(-c3ccn[nH]3)c3c(N)ncnc32)cc2cccc(C)c2c1=O | – | < 5.00 | < 5.00 | 6.00 to 7.00 |
| Cc1cccnc1-n1c(Cn2nc(C#C[C@@H](C)O)c3c(N)ncnc32)cc2cccc(C)c2c1=O | – | < 5.00 | < 5.00 | 6.00 to 7.00 |
| Cc1ccccc1-n1c(Cn2nc(-c3cn[nH]c3)c3c(N)ncnc32)cc2ccccc2c1=O | – | < 5.00 | < 5.00 | 6.00 to 7.00 |
| Cc1cccc2cc(Cn3nc(Br)c4c(N)ncnc43)n(-c3ccccc3F)c(=O)c12 | – | < 5.00 | < 5.00 | 6.00 to 7.00 |
| Cc1cccc2cc(Cn3nc(-c4cc(O)cc(F)c4)c4c(N)ncnc43)n(-c3ccccc3OCCN3CCOCC3)c(=O)c12 | 6.00 to 7.00 | – | – | – |
| Cc1cccc2cc(Cn3nc(I)c4c(N)ncnc43)n(C)c(=O)c12 | – | < 5.00 | < 5.00 | 6.00 to 7.00 |
| Cc1cccc2cc([C@H](C)Nc3ncnc4[nH]cc(Br)c34)n(C3CC3)c(=O)c12 | – | 6.00 to 7.00 | > 7.00 | > 7.00 |
| CCC(Nc1ncnc2[nH]cnc12)c1cc2ccccc2c(=O)n1-c1ccccc1 (centres undefined) | – | < 5.00 | < 5.00 | > 7.00 |
| CC(=O)Nc1nc2ccc(-c3nn(Cc4cc5cccc(C)c5c(=O)n4-c4ccccc4C)c4ncnc(N)c34)cc2o1 | – | < 5.00 | < 5.00 | > 7.00 |
| Cc1cccc2cc([C@H](C)Nc3ncnc4[nH]c(Cl)nc34)n(C3CC3)c(=O)c12 | – | < 5.00 | < 5.00 | < 5.00 |
| Cc1cccc2cc(Cn3nc(-c4ccc5sc(N)nc5c4)c4c(N)ncnc43)n(-c3ccccc3)c(=O)c12 | – | 6.00 to 7.00 | 6.00 to 7.00 | > 7.00 |
| Cc1cccc2cc(Cn3nc(-c4ccc5nc(N)sc5c4)c4c(N)ncnc43)n(-c3ccccc3)c(=O)c12 | – | > 7.00 | 6.00 to 7.00 | > 7.00 |
| Cc1cccc2cc([C@H](C)Nc3ncnc4[nH]cc(C#N)c34)n(-c3ccccc3)c(=O)c12 | – | 6.00 to 7.00 | > 7.00 | > 7.00 |
| Cc1cccc2cc([C@H](C)Nc3nc(N)nc4[nH]cnc34)n(-c3ccccc3)c(=O)c12 | – | 6.00 to 7.00 | > 7.00 | > 7.00 |
| Cc1cccc2cc([C@H](C)Nc3ncnc4[nH]cc(C#N)c34)n(C3CC3)c(=O)c12 | – | 6.00 to 7.00 | > 7.00 | > 7.00 |
| Cc1ccccc1-n1c(Cn2nc(-c3cc(O)cc(F)c3)c3c(N)ncnc32)cc2cccc(F)c2c1=O | 6.00 to 7.00 | < 5.00 | – | – |
| Cc1cccc2cc(Cn3nc(-c4ccc(O)c(F)c4)c4c(N)ncnc43)n(-c3ccccc3F)c(=O)c12 | – | < 5.00 | < 5.00 | 6.00 to 7.00 |
| Cc1cccc2cc(Cn3nc(-c4ccc5oc(N)nc5c4)c4c(N)ncnc43)n(C3CC3)c(=O)c12 | – | > 7.00 | 6.00 to 7.00 | > 7.00 |

| Compound | pIC50 (PIK3CG (human)) | pIC50 (PIK3CA (human)) | pIC50 (PIK3CB (Human)) | pIC50 (PIK3CD (Human)) |
| --- | --- | --- | --- | --- |
| Cc1ccccc1-n1c(Cn2nc(Cl)c3c(N)ncnc32)cc2cccc(C)c2c1=O | 6.00 to 7.00 | < 5.00 | – | – |
| Cc1cccc2cc([C@H](C)Nc3cc(N)nc(Cl)n3)n(C3CC3)c(=O)c12 | – | < 5.00 | < 5.00 | < 5.00 |
| COc1cc(F)cc(-c2nn(Cc3cc4cccc(C)c4c(=O)n3-c3ccccc3C)c3ncnc(N)c23)c1 | – | < 5.00 | < 5.00 | 6.00 to 7.00 |
| Cc1cccc2cc(Cn3nc(-c4cn[nH]c4)c4c(N)ncnc43)n(-c3ccccc3F)c(=O)c12 | 6.00 to 7.00 | < 5.00 | – | – |
| Cc1cccc2cc([C@H](C)Nc3ncnc4[nH]cnc34)n(-c3cccc(F)c3)c(=O)c12 | – | < 5.00 | 6.00 to 7.00 | > 7.00 |
| Cc1cccc2cc(Cn3nc(-c4ccc(O)cc4)c4c(N)ncnc43)n(-c3ccccc3F)c(=O)c12 | 6.00 to 7.00 | – | – | – |
| CCC(Nc1ncnc2[nH]cnc12)c1cc2cccc(C)c2c(=O)n1-c1cc(F)cc(F)c1 (centres undefined) | – | < 5.00 | < 5.00 | > 7.00 |
| Cc1cccc2cc(Cn3nc(-c4ccc(O)c(Cl)c4)c4c(N)ncnc43)n(-c3ccccc3F)c(=O)c12 | – | < 5.00 | < 5.00 | 6.00 to 7.00 |
| Cc1ccccc1-n1c(Cn2nc(-c3ccc(O)cc3)c3c(N)ncnc32)cc2cccc(C)c2c1=O | – | < 5.00 | < 5.00 | 6.00 to 7.00 |
| C=Cc1nn(Cc2cc3cccc(C)c3c(=O)n2-c2ccccc2F)c2ncnc(N)c12 | – | < 5.00 | < 5.00 | 6.00 to 7.00 |
| Cc1cccc2cc([C@H](C)Nc3ncnc4[nH]c(Cl)nc34)n(-c3ccccc3)c(=O)c12 | – | < 5.00 | < 5.00 | < 5.00 |
| Cc1cccc2cc(Cn3nc(-c4ccn[nH]4)c4c(N)ncnc43)n(-c3ccccc3F)c(=O)c12 | – | < 5.00 | < 5.00 | 6.00 to 7.00 |
| Cc1cccc2cc([C@H](C)Nc3ncnc4[nH]c(O)nc34)n(-c3ccccc3)c(=O)c12 | – | < 5.00 | < 5.00 | < 5.00 |
| Cc1cccc2cc([C@H](C)Nc3nc(N)ncc3C(N)=O)n(C3CC3)c(=O)c12 | – | < 5.00 | < 5.00 | < 5.00 |
| Cc1cccc2cc(Cn3nc(Cl)c4c(N)ncnc43)n(-c3ccccc3F)c(=O)c12 | – | < 5.00 | < 5.00 | 6.00 to 7.00 |
| C[C@H](Nc1ncnc2[nH]cnc12)c1cc2cccc(Cl)c2c(=O)n1C1CC1 | – | 6.00 to 7.00 | > 7.00 | > 7.00 |
| COC(=O)c1nn(Cc2cc3cccc(C)c3c(=O)n2-c2ccccc2C)c2ncnc(N)c12 | – | < 5.00 | < 5.00 | 6.00 to 7.00 |
| Cc1cccc2cc([C@H](C)Nc3ncnc4[nH]cnc34)n(-c3ccc(F)cc3)c(=O)c12 | – | 6.00 to 7.00 | > 7.00 | > 7.00 |
| Cc1ccccc1-n1c(Cn2nc(C#C[C@@H](C)O)c3c(N)ncnc32)cc2cccc(F)c2c1=O | – | < 5.00 | < 5.00 | 6.00 to 7.00 |
| Cc1cccc2cc([C@H](C)Nc3ncnc4[nH]cc(C(N)=O)c34)n(-c3ccccc3)c(=O)c12 | – | 6.00 to 7.00 | > 7.00 | > 7.00 |
| Cc1cccc2cc([C@@H](C)Nc3ncnc4[nH]cnc34)n(C3CCC3)c(=O)c12 | – | < 5.00 | < 5.00 | < 5.00 |
| Cc1cccc2cc(C(C)Nc3nc(N)nc4[nH]cnc34)n(-c3ccccc3)c(=O)c12 (centres undefined) | – | 6.00 to 7.00 | > 7.00 | > 7.00 |
| Cc1ccccc1-n1c(Cn2nc(-c3ccc4sc(N)nc4c3)c3c(N)ncnc32)cc2cccc(C)c2c1=O | – | 6.00 to 7.00 | 6.00 to 7.00 | > 7.00 |

Reference: the Kinase Knowledgebase extract (Sharma et al. 2016)
